Test results published in patent US5077195A, “Polypeptides complementary to peptides or proteins having an amino acid sequence or nucleotide coding sequence at least partially known and methods of design therefor” (Board of Reagents, The University of Texas System, priority 1986, dated 1991).
Where no end group is shown, it is not given here.

What was measured:
[1] = system: mouse adrenal tumor (Y-1) cells; assay: Glucocorticoid hormone production by Y-1 cells (corticosterone RIA); format: cell-based; settings: ACTH 10 microunits/well, 18 hrs
Experimental: An induction of glucocorticoid hormone production by ACTH and anti-HTCA was found with cultured mammalian cells. Duplicate cultures of mouse adrenal tumor (Y-1) cells in microtiter plates were treated with culture media, ACTH (10 microunits/well) or various dilutions of the anti-HTCA.
^a Duplicate cultures of mouse adrenal (Y1) cells in microtiter plate
were treated with culture media, ACTH (10 microunits/well) or the
indicated dilutions of antibody to HTCA. After 18 hrs incubation at
37° in 4% CO2, replicate cultures were pooled and assayed for
glucocorticoid hormone production by a radioimmunoassay (RIA) for […]

[2] = system: mouse adrenal tumor (Y-1) cells; assay: Binding of anti-HTCA to affixed Y-1 cells (ELISA); settings: FIG. 5
Experimental: Mouse adrenal tumor (Y-1) cells were affixed by glutaraldehyde in flat bottom wells of a microtiter plate. The affixed cells were then treated with rabbit anti-KLH or rabbit anti-HTCA alone or in the presence of several levels of ACTH. After washing, the microtiter wells were treated with goat antibody to rabbit immunoglobulin the goat antibody being coupled to the enzyme alkaline phosphatase. After washing away unbound antibody-phosphatase complex, p-nitrophenyl phosphate was added and the enzyme dependent development of absorbancy at […] was monitored. […] ACTH and anti-HTCA appeared competitive for the same binding site on the mouse adrenal tumor (Y-1) cells. Rabbit anti KLH had no effect (shaded region).

[3] = system: HTCA; assay: Solid phase radiobinding assay for ACTH in serum on HTCA-coated wells; format: binding; settings: for Log10 Dilution at which 50% inhibition occurred: graphic interpolation
Experimental: Complementary peptide (HTCA) was dissolved in phosphate buffered saline (PBS) at 1 mg/ml and 200 ul aliquots were placed in wells of a 96 well polyvinyl assay plate (Microtest III, Falcon Cat. #3911). HTCA was allowed to coat the wells overnight at 4° C. The coating solution was removed and the wells were washed three times with PBS. Radiolabeled ACTH (^125 I-ACTH, New England Nuclear NEX-65) was diluted into PBS containing 0.0005% TWEEN-20 so as to deliver 50 pg (or about 30,000 cpm) in a 20 ul volume.
Serum samples were prepared in a 96 well tissue culture plate by serial dilution of serum into PBS/TWEEN 20 to give a final volume of 180 ul/well. The serum samples were then transferred to the HTCA coated a ssay plate and allowed to incubate. Finally, 20 ul of ^125 I-ACTH solution was added, incubated, and the total sample of 200 ul was removed. After washing three times with PBS, the wells were cut from the plate and counted in a gamma counter.
Serum samples used in this study contained either 50 pg/ml or 500 pg/ml of ACTH added to fetal calf serum (FCS).

[4] = system: antibody to ACTH; assay: Competition in standard RIA for ACTH; format: binding
Experimental: Using a standard Radioimmunoassay (RIA) for ACTH (Immuno Nuclear Corporation, CAT. #2400), the ability of antibodies to a peptide (HTCA) complementary to ACTH to bind with antibodies to ACTH was determined. In a Standard RIA for ACTH, unlabelled ACTH is added in known amounts to a solution of radiolabelled ACTH and antibody to ACTH to compete away the binding of radiolabelled ACTH to its antibody. The amount of radiolabel bound is determined by immunoprecipitating the antibody and counting the radioactivity of the precipitiate.
In the experiment, unlabelled ACTH, immunoglobulin from rabbits immunized with the complementary peptide HTCA, and immunoglobulins from normal rabbits were used to compete with radiolabelled ACTH in the RIA. Immunoglobulin (35 mg/ml) solutions were prepared in phosphate buffered saline, and ACTH and ^125 I-ACTH were prepared as specified in the RIA kit.

[5] = molecular target: T1, bovine gamma-endorphin (Bos taurus, UniProt P01190); assay: ELISA binding of gamma-endorphin to coated wells; settings: gamma-odne 40 ug/well; compared with insulin or BSA coating
T1 construct: purchased Boehringer Mannheim (Indianapolis, IN); host or cells: chemical synthesis
Experimental: The wells of a 96-well round-bottomed microtiter plate were coated (by the procedure described in Example 1B) with gamma-odne (40 ug/well), insulin (20U/well) or bovine serum albumin (BSA, 200 ug/well). Varying concentrations of gamma-endorphin (as shown on the abscissa in FIG. 7) were incubated in the coated wells for 1 hr, after which the plates were thrice washed with PBS-Tween buffer. The wells were then treated with rabbit antibody for gamma-endorphin, washed, and then treated with goat antibody against rabbit immunoglobulin the goat antibody being conjugated to alkaline phosphatase. After washing away unbound goat antibody conjugate, the bound alkaline phosphatase activity was measured with p-nitrophenylphosphate as earlier described. The results of the above manipulations are shown in FIG. 7 where the extent of absorbance at 405 nm reflects the degree of gamma-endorphin binding to wells coated with gamma-odne, insulin or BSA. […] The shaded area in FIG. 7 represents the extent of gamma-endorphin binding in the presence of soluble excess of gamma-odne. Thus it is shown that a second pair of complementary peptides interacts in a manner showing affinity and apparent congruence.

[6] = molecular target: T2, opiate receptors on NG108-15 cells (Mus musculus, UniProt P32300); assay: Binding of ^125 I-beta-endorphin to NG108-15 cells; settings: read-out: % Inhibition of Specific ^125 I-beta-endorphin
T2 construct: opiate receptors on NG108-15 cells; endogenous in cells; host or cells: NG108-15 cells
Experimental: Seventy percent of the total binding was specific by conventional criteria.
For this experiment, ^125 I-beta-endorphin was preincubated 30 minutes with various amounts of the complementary peptide, gamma-ODNE, before a 30 minute (37° C.) incubation with NG108-15 cells in microtiter wells. After the incubation, cells were washed 3 times and cell associated radioactivity wad determined with a Packard Multi-Prias gamma counter.

[7] = system: female ICR mice; assay: Induction of catatonia in mice by i.c. injection of serum; format: in vivo; settings: simultaneous i.c. injection 0.2 mg
From the text: It is well known that large doses of opiate-like substances can induce a catatonic state in animals which is inhibited or reversed by treatment with the opiate antagonist naloxone. In analogy with the results in earlier examples, the ability of a peptide (gamma-ODNE) complementary to an opiate peptide, gamma-endorphin, to induce antibodies that have opiate properties was examined.
Gamma-ODNE (Example II) was conjugated to Keyhole Limpet Hemocyanin ([…]) and used with Freund's adjuvant to generate rabbit antibodies in a conventional manner (see Example 1F). Both normal and induced rabbit sera were injected intracerebroventicularly (i.c.) into female ICR mice.

HTCA, sequence (as listed by the source): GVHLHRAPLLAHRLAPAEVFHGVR
T2 sequence (P32300 whole entry): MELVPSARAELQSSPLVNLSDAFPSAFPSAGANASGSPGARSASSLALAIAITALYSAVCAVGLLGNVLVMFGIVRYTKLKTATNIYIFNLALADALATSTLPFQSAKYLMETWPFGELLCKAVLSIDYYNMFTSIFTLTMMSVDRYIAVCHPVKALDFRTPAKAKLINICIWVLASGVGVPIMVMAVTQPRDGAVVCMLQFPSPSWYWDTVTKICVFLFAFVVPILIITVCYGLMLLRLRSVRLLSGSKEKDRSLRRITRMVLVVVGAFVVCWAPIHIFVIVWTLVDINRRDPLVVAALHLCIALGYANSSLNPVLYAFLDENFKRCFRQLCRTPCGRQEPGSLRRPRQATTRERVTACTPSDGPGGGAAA

## ACTH: Synthetic ACTH, fragment 1-24, obtained from Organon; unlabelled ACTH of RIA kit in later examples
[1]; Experiment 1
  Corticosterone equivalents: 1.08 µg/mL
[1]; Experiment 2
  Corticosterone equivalents: 1.42 µg/mL
[2]
  effect on binding to Y-1 cells, absorbancy at 405 nM (in words): blocked binding of the anti-HTCA in a dose dependent manner
[3]; 50 pg/ml ACTH in FCS, Log10 Dilution 0
  % Inhibition of Specific Binding: 91%
[3]; 50 pg/ml serum sample
  Log10 Dilution at which 50% inhibition occurred: -1.1
[3]; 50 pg/ml, Log10 Dilution -0.5
  % Inhibition of Specific Binding: 73%
[3]; 50 pg/ml, Log10 Dilution -1.0
  % Inhibition of Specific Binding: 40%
[3]; 50 pg/ml, Log10 Dilution -1.5
  % Inhibition of Specific Binding: 44%
[3]; 50 pg/ml, Log10 Dilution -2.0
  % Inhibition of Specific Binding: 9%
[3]; 50 pg/ml, Log10 Dilution -2.5
  % Inhibition of Specific Binding: 1%
[3]; 50 pg/ml, Log10 Dilution -3.0
  % Inhibition of Specific Binding: 0%
[3]; 50 pg/ml, Log10 Dilution -3.5
  % Inhibition of Specific Binding: 0%
[3]; 500 pg/ml ACTH in FCS, Log10 Dilution 0
  % Inhibition of Specific Binding: 85%
[3]; 500 pg/ml serum sample
  Log10 Dilution at which 50% inhibition occurred: -2.0
[3]; 500 pg/ml, Log10 Dilution -0.5
  % Inhibition of Specific Binding: 90%
[3]; 500 pg/ml, Log10 Dilution -1.0
  % Inhibition of Specific Binding: 77%
[3]; 500 pg/ml, Log10 Dilution -1.5
  % Inhibition of Specific Binding: 57%
[3]; 500 pg/ml, Log10 Dilution -2.0
  % Inhibition of Specific Binding: 53%
[3]; 500 pg/ml, Log10 Dilution -2.5
  % Inhibition of Specific Binding: 35%
[3]; 500 pg/ml, Log10 Dilution -3.0
  % Inhibition of Specific Binding: 32%
[3]; 500 pg/ml, Log10 Dilution -3.5
  % Inhibition of Specific Binding: 20%
[4]; competitor 20 pg/ml
  Percent Specific Binding: 90%
[4]; competitor 50 pg/ml
  Percent Specific Binding: 77.5%
[4]; competitor 100 pg/ml
  Percent Specific Binding: 62.2%
[4]; competitor 200 pg/ml
  Percent Specific Binding: 42%
[4]; competitor 500 pg/ml
  Percent Specific Binding: 21.6%

## QRDKGRLALLGGHEPAV [gamma-odne, H2 N--gln--arg--asp--lys--gly--arg--leu--ala--leu--leu--gly--gly--his--glu--pro--ala--val--COOH]
[5]
  gamma-endorphin binding to coated wells, absorbance at 405 nM (in words): significantly bound
[6]; 10^-4 M
  inhibition at 100 µM: 75 ± 0.6%
[6]; 10^-5 M
  inhibition at 10 µM: 36 ± 2.1%
[6]; 10^-6 M, 30 min preincubation with 10^-11 M label
  inhibition at 1 µM: 24.7 ± 3.9%

## C=CCN1CC[C@]23c4c5ccc(O)c4O[C@H]2C(=O)CC[C@@]3(O)[C@H]1C5 [naloxone]
[7]
  reversal of serum-induced catatonia (in words): reversed
